How the values were obtained:
[1] = biological target: T1, lipoxygenase (Homo sapiens, UniProt P09917); assay: Inhibition of lipoxygenase activity, LTB4 measured by radioimmunoassay; assay type: cell-based; settings: concentration of 10^-5 M, washed human polynuclear cells activated by calcium; read-out: inhibition of lipoxygenase action (LTB4 produced)
T1 construct: endogenous in cells
T1 sequence (P09917 1-674): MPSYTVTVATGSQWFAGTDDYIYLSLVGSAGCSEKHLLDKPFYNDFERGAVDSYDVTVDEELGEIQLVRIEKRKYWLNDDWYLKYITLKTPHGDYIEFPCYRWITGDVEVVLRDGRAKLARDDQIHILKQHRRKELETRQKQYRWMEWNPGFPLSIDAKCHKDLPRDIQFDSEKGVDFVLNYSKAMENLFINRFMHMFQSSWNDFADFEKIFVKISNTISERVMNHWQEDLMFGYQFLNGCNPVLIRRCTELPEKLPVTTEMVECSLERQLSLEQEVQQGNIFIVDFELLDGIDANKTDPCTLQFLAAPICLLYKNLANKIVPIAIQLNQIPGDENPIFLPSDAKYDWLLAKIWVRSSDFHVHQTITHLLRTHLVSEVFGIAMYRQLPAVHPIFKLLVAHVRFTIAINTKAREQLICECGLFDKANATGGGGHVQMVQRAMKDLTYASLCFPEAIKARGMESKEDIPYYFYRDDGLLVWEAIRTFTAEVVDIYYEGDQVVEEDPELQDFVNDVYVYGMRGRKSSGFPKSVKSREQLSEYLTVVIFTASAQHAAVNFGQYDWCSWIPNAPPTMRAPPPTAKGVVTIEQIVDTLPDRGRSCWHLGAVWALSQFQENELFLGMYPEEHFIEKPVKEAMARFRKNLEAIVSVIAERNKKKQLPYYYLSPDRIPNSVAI
Method: The lipoxygenase activity is measured using washed human polynuclear cells, in the presence and absence of the claimed compounds after activation by calcium (A 23/87). The leukotriene B4 (LTB4) produced is measured by radioimmunoassay (Gresele, P. et al. Biochem. Biophys. Res. Comm. 1986, 137, 334-342).

[2] = tested on: rat brain homogenates; assay: Inhibition of lipid peroxidation induced by the Fe++/ascorbate system; assay type: biochemical; settings: concentration of 10^-5 M, Fe++/ascorbate (10 μM/250 μM)
Method: A study of the capacity of the compounds of the invention to trap free OH. radicals was studied on rat brain homogenates on the other hand with respect to peroxidation induced by the Fe++/ascorbate (10 μM/250 μM) system. The rat brain homogenates are placed in the presence or absence of the test compounds for 60 minutes at 37° C. The intensity of lipid peroxidation in the presence and in the absence of the compounds of the invention is determined by the substances reacting with thiobarbituric acid, expressed in mmol of malondialdehyde, by a method derived from that of […], Biochem. Med. 1976, 15, 212-216). The methodology is identical, with the exception of the addition to the homogenate of the Fe++/ascorbate radical-inducing system.

[3] = Inhibition of formation of conjugated dienes formed by free-radical activity; assay type: biochemical; settings: 10^-5 M concentration, linoleic acid emulsion, Fe2+/Fe3+ mixture
Excerpt: This methodology consists in generating free OH- radicals in an emulsion of linoleic acid, by means of a system consisting of an Fe^2+ /Fe^3+ mixture.

[4] = tested on: native LDL; assay: Level of LDL oxidation by Cu++, oxidation products assayed by FPLC; assay type: biochemical; settings: relative to probucol (i=1)
Method: Under these conditions, free radicals are generated by Cu++ in a medium containing native LDL in the presence or absence of the test compounds. The reaction is stopped by adding 2,6-di-tert-butyl-4-methylphenol and EDTA to the reaction medium and the oxidation products are assayed by FPLC.
D being the height of the peak of fraction 27/28 of the chromatogram; the sum of the oxidized fractions 27/28 and 31/32 is equal to 100.

[5] = tested on: rat brain homogenates; assay: Inhibition of spontaneous lipid peroxidation (thiobarbituric acid reacting substances); assay type: biochemical; settings: concentration of 10^-5 M, 60 minutes at 37° C.
Method: A study of the capacity of the compounds of the invention to trap free OH. radicals was studied on rat brain homogenates on the one hand with respect to the spontaneous peroxidation of lipids, The rat brain homogenates are placed in the presence or absence of the test compounds for 60 minutes at 37° C. The intensity of lipid peroxidation in the presence and in the absence of the compounds of the invention is determined by the substances reacting with thiobarbituric acid, expressed in mmol of malondialdehyde, by a method derived from that of […], Biochem. Med. 1976, 15, 212-216).

[6] = tested on: Human red cells; assay: AAPH-induced hemolysis; assay type: cell-based; settings: Erythrocyte, 0.5 h, concentration of 10^-5 M, 30 minutes at 37° C.

| Compound | inhibition at 10 µM [1] [%] | inhibition of induced peroxidation [2] [%] | LDL oxidation: oxidized fraction 27/28 of the chromatogram [4] | inhibition of spontaneous peroxidation [5] | also measured |
| --- | --- | --- | --- | --- | --- |
| Cn1c(=O)oc2ccc(C(=O)C=Cc3cc(C(C)(C)C)c(O)c(C(C)(C)C)c3)cc21 [Example 1, 5-(3',5'-di-tert-butyl-4'-hydroxycinnamo-yl)-3-methylbenzoxazolinone] | ~80 | – | – | – | – |
| Cn1c(=O)sc2cc(C(=O)C=Cc3cc(C(C)(C)C)c(O)c(C(C)(C)C)c3)ccc21 [Example 4, 6-(3',5'-di-tert-butyl-4'-hydroxycinnamoyl)-3-methylbenzothiazolinone] | – | ~30 | – | – | – |
| Cn1c(=O)oc2cc(C(=O)C=Cc3cc(C(C)(C)C)c(O)c(C(C)(C)C)c3)ccc21 [Example 5, 6-(3',5'-di-tert-butyl-4'-hydroxycinnamoyl)-3-methylbenzoxazolinone] | ~60 | – | – | – | – |
| CC(C)(C)c1cc(C=CC(=O)c2ccc3[nH]c(=O)oc3c2)cc(C(C)(C)C)c1O [Example 6, 6-(3',540-di-tert-butyl-4'-hydroxycinnamoyl)benzoxazolinone] | – | – | – | – | inhibition of diene formation [3]: approximately 75% |
| CC(C)(C)c1cc(C=CC(=O)c2ccc3c(c2)OCC(=O)N3)cc(C(C)(C)C)c1O [Example 7, 7-(3',54- -di-tert-butyl-4'-hydroxycinnamoyl)-1,4-benzoxazin-3-one] | – | – | – | – | inhibition of diene formation [3]: approximately 75% |
| CC1C(=Cc2cc(C(C)(C)C)c(O)c(C(C)(C)C)c2)C(=O)c2cc3oc(=O)n(C)c3cc21 (stereo not drawn) [Example 27, 2,3-dihydro-3,5-dimethyl-6-(3',5'-di-tert-butyl-4'-hydroxybenzylidene)cyclopenta[f]benzoxazone-2,7-dione] | – | – | oxidized fraction 27/28 disappears | – | – |
| CC1CC(=Cc2cc(C(C)(C)C)c(O)c(C(C)(C)C)c2)C(=O)c2cc3c(cc21)oc(=O)n3C (stereo not drawn) [Example 28, 2,3-dihydro-3,8-dimethyl-6-(3',5'-di-tert-butyl-4'-hydroxybenzylidene)cyclohexa[f]benzoxazone-2,5-dione] | – | – | oxidized fraction 27/28 disappears | – | – |
| CC1C(=Cc2cc(C(C)(C)C)c(O)c(C(C)(C)C)c2)C(=O)c2cc3c(cc21)oc(=O)n3C (stereo not drawn) [Example 29, 2,3-dihydro-3,7-dimethyl-6-(3',5'-di-tert-butyl-4'-hydroxybenzylidene)cyclopenta[f]benzoxazole-2,5-dione] | – | – | oxidized fraction 27/28 disappears | – | – |
| CC1C(=Cc2cc(C(C)(C)C)c(O)c(C(C)(C)C)c2)C(=O)c2cc3oc(=O)[nH]c3cc21 (stereo not drawn) [Example 33, 2,3-dihydro-5-methyl-6-(3',5'-di-tert-butyl-4'-hydroxybenzylidene)cyclopenta[f]benzoxa-zone-2,6-dione] | – | ~50 | oxidized fraction 27/28 disappears | approximately 50% | – |
| CC(C)(C)c1cc(C=C2C(=O)c3cc4oc(=O)[nH]c4cc3C2c2ccccc2)cc(C(C)(C)C)c1O (stereo not drawn) [Example 35, 2,3-dihydro-5-phenyl-6-(3',5'-di-tert-butyl-4'-hydroxybenzylidene)cyclopenta[f]benzoxazole-2,7-dione] | ~60 | ~50 | oxidized fraction 27/28 disappears | approximately 50% | – |
| Cn1c(=O)oc2cc3c(cc21)C(c1ccccc1)C(=Cc1cc(C(C)(C)C)c(O)c(C(C)(C)C)c1)C3=O (stereo not drawn) [Example 36, 2,3-dihydro-3-methyl-5-phenyl-6-(3',5'-di-tert-butyl-4'-hydroxybenzylidene)cyclopenta[f]benzoxazole-2,7-dione] | ~60 | ~50 | oxidized fraction 27/28 disappears | approximately 50% | inhibition of diene formation [3]: approximately 50% |
| Cn1c(=O)oc2cc3c(cc21)CC(=Cc1cc(C(C)(C)C)c(O)c(C(C)(C)C)c1)C3=O [Example 40, 2,3-dihydro-3-methyl-2,7-dioxo-6-(3',5'-di-tert-butyl-4'-hydroxybenzylidene)cyclopenta[f]benzoxazole-2,7-dione] | – | – | – | approximately 50% | – |
| CC(C)(Sc1cc(C(C)(C)C)c(O)c(C(C)(C)C)c1)Sc1cc(C(C)(C)C)c(O)c(C(C)(C)C)c1 [probucol, reference compound] | 44 | 27 | – | 37% | inhibition at 10 µM [6]: 48% |
| vitamin E [reference compound] | – | 6 | – | 18% | – |
